Measurements reported in PMC7770183, “Enhanced Bioavailability of Boswellic Acid by Piper longum: A Computational and Pharmacokinetic Study” (Frontiers in Pharmacology, 2020).
Where two headings read alike, the source gives them in different places.

Assay: Pharmacokinetic study of β-boswellic acid in rabbits with and without Piper longum extract (serum, HPLC-UV)
Assay type: in vivo
Settings: for AUC(0-t) / AUC(0-inf) / Cmax / Tmax / Vd/F / k el: male, rabbit, serum, po; for AUC(0-t): oral capsule; for Vd/F: read-out: Apparent volume of distribution (Vd/F); for k el: read-out: Ke (converted)
[1] = 20 mg, oral, Control: 20 mg of BA alone
[2] = Test I: 20 mg of BA + 2.5 mg of PL
[3] = Test II: 20 mg of BA + 10 mg of PL

C[C@H]1[C@H](C)CC[C@]2(C)CC[C@]3(C)C(=CC[C@@H]4[C@@]5(C)CC[C@@H](O)[C@](C)(C(=O)O)[C@@H]5CC[C@]43C)[C@H]12 [β-boswellic acid, 3α-hydroxyurs-12-en-24-oic acid]
AUC(0-t) (20 mg, Control: 20 mg of β-boswellic acid (BA) alone): 766 ± 22.8 ng·h/mL | AUC(0-inf) [1]: 772 ± 22.1 ng·h/mL | Cmax [1]: 260 ± 21.3 ng/mL | Tmax [1]: 2 ± 0.18 h | Vd/F [1]: 96 ± 14 L | k el [1]: 0.000131 s⁻¹ | AUC(0-inf) [2]: 2660 ± 102 ng·h/mL | Cmax [2]: 321.4 ± 2.7 ng/mL | Tmax [2]: 2 ± 0.22 h | Vd/F [2]: 43.2 ± 7 L | k el [2]: 5.24e-05 s⁻¹ | AUC(0-inf) [3]: 2850 ± 251 ng·h/mL | Cmax [3]: 359 ± 12 ng/mL | Tmax [3]: 3 ± 0.26 h | Vd/F [3]: 67.5 ± 11 L | k el [3]: 3.07e-05 s⁻¹ | AUC(0-t) (Test I: 20 mg of BA + 2.5 mg of adjuvant (PL)): 1890 ± 109 ng·h/mL | AUC(0-t) (Test II: 20 mg of BA + 10 mg of adjuvant (PL)): 2210 ± 115 ng·h/mL | Ka (oral, Control: 20 mg of BA alone): 0.6168 ± 0.16 h⁻¹ | Ka (oral, Test I: 20 mg of BA + 2.5 mg of PL): 0.740 ± 0.22 h⁻¹ | Ka (oral, Test II: 20 mg of BA + 10 mg of PL): 0.6112 ± 0.17 h⁻¹ | time of complete elimination from serum (oral, β-boswellic acid alone): 9 h
